The source of these data is patent US9610235B2, “Methods and compositions to improve mechanical resistance of teeth” (THEOCORP HOLDING CO., LLC, priority 2010, dated 2017).

Test [1] in a line: Scratched human teeth, SEM comparison of theobromine and NaF. The note with it: 90 minutes incubation; NaF 0.25%, theobromine 200 mg/L.
Description: (§1) Isolated human teeth were scratched with a diamond scribe on the enamel surface. Each tooth was then etched for 15 seconds in 0.1 M HCl, rinsed with distilled water, then exposed for 15 seconds to a 0.1 M oxalic acid solution, and then rinsed once more with distilled water. […] The pH was adjusted to 7.4-7.6, after which a 0.2 M CaCl2 solution was added with stirring (the solution turns immediately turbid from Ca-phosphate precipitation). The pH was checked and adjusted immediately to between 7.4 and 7.6, as required. […] A volume ratio of about 3:5 Na2HPO4 solution-to-CaCl2 solution was used to avoid any excess of either Ca or P. The teeth were so incubated at room temperature for about 90 minutes, after which they were removed from solution, carefully rinsed several times with distilled water, and then dried in a desiccator for 24 hours. After drying, the teeth were carbon-coated for viewing via scanning electron microscopy (SEM).
The conditions of test [2]: deposition in drilled holes; NaF 0.25%, theobromine 200 mg/L.
Description: as §1
Using a dental drill, holes were drilled into the enamel surfaces of isolated human teeth, with each tooth receiving three holes in three separate locations. […] The teeth were visualized via SEM, as in EXAMPLE 4, and the amount of calcium phosphate deposition measured for each experimental condition.

Regarding `[F-].[Na+]` [NaF, sodium fluoride], the “appearance of diamond-scribe scratch in SEM” value in test [1] is given as “partly-filled”. The “Calcium Phosphate (μm) ± S.D.” value in test [2] is 70 ± 8.8 μm.
